# Reference: publication PMC11604427 (Frontiers in Pharmacology, 2024)
# Columns and labels:
# HepG2 cells = assay: Western blot of apoptosis markers; assay type: cell-based, human
# Description: To evaluate the protein levels of apoptosis-associated markers, we performed Western blot analysis on cell extracts as previously reported ([Hao et al., 2018]). Briefly, equal amounts of protein were subjected to SDS-PAGE and then transferred onto a polyvinylidene fluoride (PVDF) membrane. The membrane was incubated in a blocking solution consisting of 5% non-fat dry milk in Tris-buffered saline with Tween-20 (TBS-T) for 3 h at room temperature. Subsequently, the membrane was probed with primary antibodies specific to cleaved PARP and cleaved caspase-3 overnight at 4°C. After washing, the membrane was incubated with horseradish peroxidase-conjugated secondary antibodies for 1 h at room temperature. Immunoreactive bands were visualized using a chemiluminescent substrate (ECL, Pierce Technology). The relative expression levels of cleaved PARP and cleaved caspase-3 were quantified.
# ABL1 = target: T1, ABL1 (Homo sapiens, UniProt P00519); assay: SelectScreen kinase selectivity assay; assay type: biochemical
# T1 construct: purchased Thermo Fisher Scientific (SelectScreen service)
# Description: (§1) The kinase selectivity analysis of PKHD-5 was performed using the SelectScreen kinase analysis service provided by Thermo Fisher Scientific. The experiment initially involved the preparation of a series of inhibitor solutions at varying concentrations, which were then reacted with various kinase targets under standardized conditions to calculate the percentage inhibition for each test solution. Ultimately, the IC50 values were calculated based on the concentration-inhibition curves by fitting a four-parameter logistic curve, thereby assessing the potency and selectivity of the inhibitors. The analysis results are detailed in Supplementary Table S1.
# ABL2 = target: T2, ABL2 (Homo sapiens, UniProt P42684); assay: SelectScreen kinase selectivity assay; assay type: biochemical
# T2 construct: purchased Thermo Fisher Scientific (SelectScreen service)
# T2 sequence (P42684 whole entry): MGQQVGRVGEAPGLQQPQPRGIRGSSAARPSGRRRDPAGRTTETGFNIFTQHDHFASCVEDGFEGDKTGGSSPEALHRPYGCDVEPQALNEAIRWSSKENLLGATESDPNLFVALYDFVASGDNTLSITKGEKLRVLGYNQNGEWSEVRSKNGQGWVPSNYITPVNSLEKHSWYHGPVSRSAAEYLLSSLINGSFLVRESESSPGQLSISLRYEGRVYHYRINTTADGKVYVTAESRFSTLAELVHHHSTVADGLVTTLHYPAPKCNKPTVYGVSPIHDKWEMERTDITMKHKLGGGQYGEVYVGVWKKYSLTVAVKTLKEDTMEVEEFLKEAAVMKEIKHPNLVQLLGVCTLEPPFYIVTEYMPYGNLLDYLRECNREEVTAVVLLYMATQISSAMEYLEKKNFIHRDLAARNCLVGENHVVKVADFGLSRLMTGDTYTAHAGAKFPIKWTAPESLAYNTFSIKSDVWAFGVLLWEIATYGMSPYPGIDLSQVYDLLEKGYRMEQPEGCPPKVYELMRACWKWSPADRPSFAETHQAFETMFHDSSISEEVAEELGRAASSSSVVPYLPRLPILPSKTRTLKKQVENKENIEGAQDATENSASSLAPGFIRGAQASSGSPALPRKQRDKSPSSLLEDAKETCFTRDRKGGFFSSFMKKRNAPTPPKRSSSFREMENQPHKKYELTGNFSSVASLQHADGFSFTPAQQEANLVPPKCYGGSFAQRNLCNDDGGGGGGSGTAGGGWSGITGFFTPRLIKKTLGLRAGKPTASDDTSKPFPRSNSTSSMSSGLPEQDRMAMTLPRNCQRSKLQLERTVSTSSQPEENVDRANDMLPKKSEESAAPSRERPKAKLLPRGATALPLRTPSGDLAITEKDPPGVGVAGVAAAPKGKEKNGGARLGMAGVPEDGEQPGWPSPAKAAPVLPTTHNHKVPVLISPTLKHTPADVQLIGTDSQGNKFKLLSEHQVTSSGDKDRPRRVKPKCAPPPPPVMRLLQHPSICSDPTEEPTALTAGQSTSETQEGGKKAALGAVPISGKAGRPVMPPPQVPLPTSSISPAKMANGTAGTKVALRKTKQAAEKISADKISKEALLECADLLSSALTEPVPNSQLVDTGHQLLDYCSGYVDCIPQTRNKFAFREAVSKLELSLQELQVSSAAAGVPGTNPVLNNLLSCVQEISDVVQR
# Description: as §1
# ALK = target: T3, ALK (Homo sapiens, UniProt Q9UM73); assay: SelectScreen kinase selectivity assay; assay type: biochemical
# T3 construct: purchased Thermo Fisher Scientific (SelectScreen service)
# T3 sequence (Q9UM73 19-1620): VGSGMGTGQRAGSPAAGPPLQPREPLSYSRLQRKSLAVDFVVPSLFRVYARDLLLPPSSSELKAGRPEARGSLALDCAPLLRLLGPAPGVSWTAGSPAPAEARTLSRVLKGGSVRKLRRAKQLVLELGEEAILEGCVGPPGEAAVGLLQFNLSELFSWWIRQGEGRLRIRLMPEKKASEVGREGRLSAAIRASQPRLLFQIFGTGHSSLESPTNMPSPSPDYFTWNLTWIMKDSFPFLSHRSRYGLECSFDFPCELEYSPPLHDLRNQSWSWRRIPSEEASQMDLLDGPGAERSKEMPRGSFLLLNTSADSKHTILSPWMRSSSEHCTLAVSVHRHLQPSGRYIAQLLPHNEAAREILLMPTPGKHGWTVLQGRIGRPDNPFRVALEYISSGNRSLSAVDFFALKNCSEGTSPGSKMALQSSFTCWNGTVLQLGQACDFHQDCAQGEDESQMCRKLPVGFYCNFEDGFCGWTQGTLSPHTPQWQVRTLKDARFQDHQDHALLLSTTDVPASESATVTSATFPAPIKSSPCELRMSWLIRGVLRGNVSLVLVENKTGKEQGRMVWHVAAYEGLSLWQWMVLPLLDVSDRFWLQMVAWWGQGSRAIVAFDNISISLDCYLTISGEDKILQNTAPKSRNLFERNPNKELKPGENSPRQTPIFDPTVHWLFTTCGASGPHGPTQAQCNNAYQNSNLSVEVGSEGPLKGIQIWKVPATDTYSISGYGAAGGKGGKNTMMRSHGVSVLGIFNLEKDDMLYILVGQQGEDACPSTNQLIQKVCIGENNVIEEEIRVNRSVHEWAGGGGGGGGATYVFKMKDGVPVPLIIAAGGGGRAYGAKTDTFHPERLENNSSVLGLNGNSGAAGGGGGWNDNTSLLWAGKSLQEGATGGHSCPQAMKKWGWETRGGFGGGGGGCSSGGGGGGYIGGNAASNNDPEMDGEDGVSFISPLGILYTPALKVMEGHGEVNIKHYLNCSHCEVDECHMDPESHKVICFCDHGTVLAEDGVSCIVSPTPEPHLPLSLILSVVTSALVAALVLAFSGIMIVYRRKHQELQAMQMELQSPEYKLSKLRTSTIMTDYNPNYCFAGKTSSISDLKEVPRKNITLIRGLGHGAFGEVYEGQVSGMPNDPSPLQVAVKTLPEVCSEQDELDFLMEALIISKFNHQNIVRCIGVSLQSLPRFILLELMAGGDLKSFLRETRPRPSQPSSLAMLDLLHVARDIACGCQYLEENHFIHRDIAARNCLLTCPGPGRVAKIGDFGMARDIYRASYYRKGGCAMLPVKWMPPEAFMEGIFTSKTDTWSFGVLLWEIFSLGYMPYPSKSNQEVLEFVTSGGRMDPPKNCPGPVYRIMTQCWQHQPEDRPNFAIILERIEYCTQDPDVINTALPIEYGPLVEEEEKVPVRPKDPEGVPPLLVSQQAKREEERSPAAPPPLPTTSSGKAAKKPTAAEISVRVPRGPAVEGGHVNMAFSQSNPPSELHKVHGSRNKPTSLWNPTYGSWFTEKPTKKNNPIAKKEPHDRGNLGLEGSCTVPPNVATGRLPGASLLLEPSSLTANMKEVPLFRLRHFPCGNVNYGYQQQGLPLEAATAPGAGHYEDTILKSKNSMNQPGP
# Description: as §1
# AXL = target: T4, AXL (Homo sapiens, UniProt P30530); assay: SelectScreen kinase selectivity assay; assay type: biochemical
# T4 construct: purchased Thermo Fisher Scientific (SelectScreen service)
# Description: as §1
# CDK1 = target: T5, CDK1 (Homo sapiens, UniProt P06493); assay: SelectScreen kinase selectivity assay; assay type: biochemical
# T5 construct: purchased Thermo Fisher Scientific (SelectScreen service)
# T5 sequence (P06493 whole entry): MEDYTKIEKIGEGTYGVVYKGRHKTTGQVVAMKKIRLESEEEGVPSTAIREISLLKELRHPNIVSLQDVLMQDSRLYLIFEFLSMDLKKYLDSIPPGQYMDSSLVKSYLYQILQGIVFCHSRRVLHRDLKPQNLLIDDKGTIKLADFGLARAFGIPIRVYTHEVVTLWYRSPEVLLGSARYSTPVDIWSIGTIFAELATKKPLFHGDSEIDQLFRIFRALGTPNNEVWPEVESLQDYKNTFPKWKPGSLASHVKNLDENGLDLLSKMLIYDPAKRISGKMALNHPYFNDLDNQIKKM
# T5 sequence (P14635 whole entry partner): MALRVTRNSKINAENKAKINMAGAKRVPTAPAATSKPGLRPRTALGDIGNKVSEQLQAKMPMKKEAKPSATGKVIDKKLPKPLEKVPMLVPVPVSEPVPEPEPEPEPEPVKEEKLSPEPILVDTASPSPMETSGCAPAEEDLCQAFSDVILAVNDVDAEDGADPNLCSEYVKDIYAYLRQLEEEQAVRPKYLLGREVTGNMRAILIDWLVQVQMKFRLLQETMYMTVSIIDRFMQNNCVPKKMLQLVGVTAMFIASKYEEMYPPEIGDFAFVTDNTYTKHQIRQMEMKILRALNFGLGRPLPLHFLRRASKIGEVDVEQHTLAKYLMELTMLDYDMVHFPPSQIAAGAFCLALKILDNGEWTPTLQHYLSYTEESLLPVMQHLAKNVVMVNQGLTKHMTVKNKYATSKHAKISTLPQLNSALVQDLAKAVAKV
# Description: as §1
# EPHA1 = target: T6, EPHA1 (Homo sapiens, UniProt P21709); assay: SelectScreen kinase selectivity assay; assay type: biochemical
# T6 construct: purchased Thermo Fisher Scientific (SelectScreen service)
# T6 sequence (P21709 26-976): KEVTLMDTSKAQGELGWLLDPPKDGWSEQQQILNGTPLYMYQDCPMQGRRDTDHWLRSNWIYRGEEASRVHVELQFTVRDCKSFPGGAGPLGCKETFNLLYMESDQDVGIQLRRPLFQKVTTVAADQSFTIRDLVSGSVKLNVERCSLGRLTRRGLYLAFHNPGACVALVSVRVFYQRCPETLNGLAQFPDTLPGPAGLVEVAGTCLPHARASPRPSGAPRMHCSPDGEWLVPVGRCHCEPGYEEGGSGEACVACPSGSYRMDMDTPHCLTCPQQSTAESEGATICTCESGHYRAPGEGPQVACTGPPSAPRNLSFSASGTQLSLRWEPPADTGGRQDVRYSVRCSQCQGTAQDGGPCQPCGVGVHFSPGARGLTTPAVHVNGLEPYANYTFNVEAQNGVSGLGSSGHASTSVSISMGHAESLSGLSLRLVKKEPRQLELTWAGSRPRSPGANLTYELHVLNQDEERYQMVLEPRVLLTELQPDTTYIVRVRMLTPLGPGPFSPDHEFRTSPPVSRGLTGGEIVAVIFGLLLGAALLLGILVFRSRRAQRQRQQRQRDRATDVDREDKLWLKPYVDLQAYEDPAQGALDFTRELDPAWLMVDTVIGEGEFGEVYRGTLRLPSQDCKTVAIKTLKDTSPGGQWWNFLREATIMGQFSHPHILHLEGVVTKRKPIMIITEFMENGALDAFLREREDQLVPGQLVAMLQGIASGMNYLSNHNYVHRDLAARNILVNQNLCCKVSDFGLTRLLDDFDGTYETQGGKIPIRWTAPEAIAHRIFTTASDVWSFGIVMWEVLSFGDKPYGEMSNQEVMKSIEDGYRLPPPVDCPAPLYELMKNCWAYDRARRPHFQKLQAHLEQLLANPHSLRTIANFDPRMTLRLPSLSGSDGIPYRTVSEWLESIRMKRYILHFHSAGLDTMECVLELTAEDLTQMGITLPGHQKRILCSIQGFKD
# Description: as §1
# EPHA2 = target: T7, EPHA2 (Homo sapiens, UniProt P29317); assay: SelectScreen kinase selectivity assay; assay type: biochemical
# T7 construct: purchased Thermo Fisher Scientific (SelectScreen service)
# Description: as §1
# EPHA3 = target: T8, EPHA3 (Homo sapiens, UniProt P29320); assay: SelectScreen kinase selectivity assay; assay type: biochemical
# T8 construct: purchased Thermo Fisher Scientific (SelectScreen service)
# Description: as §1
# EPHA4 = target: T9, EPHA4 (Homo sapiens, UniProt P54764); assay: SelectScreen kinase selectivity assay; assay type: biochemical
# T9 construct: purchased Thermo Fisher Scientific (SelectScreen service)
# Description: as §1
# EPHA5 = target: T10, EPHA5 (Homo sapiens, UniProt P54756); assay: SelectScreen kinase selectivity assay; assay type: biochemical
# T10 construct: purchased Thermo Fisher Scientific (SelectScreen service)
# Description: as §1
# EPHB2 = target: T11, EPHB2 (Homo sapiens, UniProt P29323); assay: SelectScreen kinase selectivity assay; assay type: biochemical
# T11 construct: purchased Thermo Fisher Scientific (SelectScreen service)
# Description: as §1
# ERBB4 = target: T12, ERBB4 (Homo sapiens, UniProt Q15303); assay: SelectScreen kinase selectivity assay; assay type: biochemical
# T12 construct: purchased Thermo Fisher Scientific (SelectScreen service)
# Description: as §1
# FES = target: T13, FES (Homo sapiens, UniProt P07332); assay: SelectScreen kinase selectivity assay; assay type: biochemical
# T13 construct: purchased Thermo Fisher Scientific (SelectScreen service)
# Description: as §1
# FGFR3 = target: T14, FGFR3 (Homo sapiens, UniProt P22607); assay: SelectScreen kinase selectivity assay; assay type: biochemical
# T14 construct: purchased Thermo Fisher Scientific (SelectScreen service)
# Description: as §1
# FRK = target: T15, FRK (Homo sapiens, UniProt P42685); assay: SelectScreen kinase selectivity assay; assay type: biochemical
# T15 construct: purchased Thermo Fisher Scientific (SelectScreen service)
# Description: as §1
# HCK = target: T16, HCK (Homo sapiens, UniProt P08631); assay: SelectScreen kinase selectivity assay; assay type: biochemical
# T16 construct: purchased Thermo Fisher Scientific (SelectScreen service)
# Description: as §1
# IGF1R = target: T17, IGF1R (Homo sapiens, UniProt P08069); assay: SelectScreen kinase selectivity assay; assay type: biochemical
# T17 construct: purchased Thermo Fisher Scientific (SelectScreen service)
# Description: as §1
# INSR = target: T18, INSR (Homo sapiens, UniProt P06213); assay: SelectScreen kinase selectivity assay; assay type: biochemical
# T18 construct: purchased Thermo Fisher Scientific (SelectScreen service)
# Description: as §1
# INSRR = target: T19, INSRR (Homo sapiens, UniProt P14616); assay: SelectScreen kinase selectivity assay; assay type: biochemical
# T19 construct: purchased Thermo Fisher Scientific (SelectScreen service)
# Description: as §1
# ITK = target: T20, ITK (Homo sapiens, UniProt Q08881); assay: SelectScreen kinase selectivity assay; assay type: biochemical
# T20 construct: purchased Thermo Fisher Scientific (SelectScreen service)
# Description: as §1
# JAK1 = target: T21, JAK1 (Homo sapiens, UniProt P23458); assay: SelectScreen kinase selectivity assay; assay type: biochemical
# T21 construct: purchased Thermo Fisher Scientific (SelectScreen service)
# Description: as §1
# JAK2 = target: T22, JAK2 (Homo sapiens, UniProt O60674); assay: SelectScreen kinase selectivity assay; assay type: biochemical
# T22 construct: purchased Thermo Fisher Scientific (SelectScreen service)
# Description: as §1
# KDR = target: T23, KDR (Homo sapiens, UniProt P35968); assay: SelectScreen kinase selectivity assay; assay type: biochemical
# T23 construct: purchased Thermo Fisher Scientific (SelectScreen service)
# Description: as §1
# LTK = target: T24, LTK (Homo sapiens, UniProt P29376); assay: SelectScreen kinase selectivity assay; assay type: biochemical
# T24 construct: purchased Thermo Fisher Scientific (SelectScreen service)
# Description: as §1
# LYN = target: T25, LYN (Homo sapiens, UniProt P07948); assay: SelectScreen kinase selectivity assay; assay type: biochemical
# T25 construct: purchased Thermo Fisher Scientific (SelectScreen service)
# Description: as §1
# MERTK = target: T26, MERTK (Homo sapiens, UniProt Q12866); assay: SelectScreen kinase selectivity assay; assay type: biochemical
# T26 construct: purchased Thermo Fisher Scientific (SelectScreen service)
# Description: as §1
# MET = target: T27, MET (Homo sapiens, UniProt P08581); assay: SelectScreen kinase selectivity assay; assay type: biochemical
# T27 construct: purchased Thermo Fisher Scientific (SelectScreen service)
# Description: as §1
# MST1R = target: T28, MST1R (Homo sapiens, UniProt Q04912); assay: SelectScreen kinase selectivity assay; assay type: biochemical
# T28 construct: purchased Thermo Fisher Scientific (SelectScreen service)
# Description: as §1
# NTRK1 = target: T29, NTRK1 (Homo sapiens, UniProt P04629); assay: SelectScreen kinase selectivity assay; assay type: biochemical
# T29 construct: purchased Thermo Fisher Scientific (SelectScreen service)
# Description: as §1
# PDGFRA = target: T30, PDGFRA (Homo sapiens, UniProt P16234); assay: SelectScreen kinase selectivity assay; assay type: biochemical
# T30 construct: purchased Thermo Fisher Scientific (SelectScreen service)
# Description: as §1
# PDGFRB = target: T31, PDGFRB (Homo sapiens, UniProt P09619); assay: SelectScreen kinase selectivity assay; assay type: biochemical
# T31 construct: purchased Thermo Fisher Scientific (SelectScreen service)
# Description: as §1
# PIM1 = target: T32, PIM1 (Homo sapiens, UniProt P11309); assay: SelectScreen kinase selectivity assay; assay type: biochemical
# T32 construct: purchased Thermo Fisher Scientific (SelectScreen service)
# T32 sequence (P11309 whole entry): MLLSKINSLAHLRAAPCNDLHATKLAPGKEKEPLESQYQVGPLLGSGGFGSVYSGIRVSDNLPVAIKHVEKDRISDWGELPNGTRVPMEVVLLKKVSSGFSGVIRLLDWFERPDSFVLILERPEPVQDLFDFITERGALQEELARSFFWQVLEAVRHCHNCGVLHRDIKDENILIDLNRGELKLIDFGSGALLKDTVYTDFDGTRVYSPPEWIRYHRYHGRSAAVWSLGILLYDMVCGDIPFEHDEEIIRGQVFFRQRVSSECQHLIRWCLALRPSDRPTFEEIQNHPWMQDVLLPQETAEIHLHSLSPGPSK
# Description: as §1
# PLK1 = target: T33, PLK1 (Homo sapiens, UniProt P53350); assay: SelectScreen kinase selectivity assay; assay type: biochemical
# T33 construct: purchased Thermo Fisher Scientific (SelectScreen service)
# Description: as §1
# RAF1 = target: T34, RAF1 (Homo sapiens, UniProt P04049, Y340D/Y341D); assay: SelectScreen kinase selectivity assay; assay type: biochemical
# T34 construct: purchased Thermo Fisher Scientific (SelectScreen service)
# Description: as §1
# ROS1 = target: T35, ROS1 (Homo sapiens, UniProt P08922); assay: SelectScreen kinase selectivity assay; assay type: biochemical
# T35 construct: purchased Thermo Fisher Scientific (SelectScreen service)
# Description: as §1
# TYRO3 = target: T36, TYRO3 (Homo sapiens, UniProt Q06418); assay: SelectScreen kinase selectivity assay; assay type: biochemical
# T36 construct: purchased Thermo Fisher Scientific (SelectScreen service)
# Description: as §1
smiles,measurement,setting,value
Cc1ccc(O)c(C)c1-n1c(N)c(C(N)=O)c2cc(CCCCCC(=O)NO)c(C)nc21 [PKHD-5],levels of cleaved PARP,HepG2 cells,increased levels
same,levels of cleaved caspase-3,HepG2 cells,increased levels
same,IC50,ABL1,> 50 µM
same,IC50,ABL2,> 50 µM
same,IC50,ALK,> 50 µM
same,IC50,AXL,> 50 µM
same,IC50,CDK1,> 50 µM
same,IC50,EPHA1,> 50 µM
same,IC50,EPHA2,> 50 µM
same,IC50,EPHA3,> 50 µM
same,IC50,EPHA4,> 50 µM
same,IC50,EPHA5,> 50 µM
same,IC50,EPHB2,> 50 µM
same,IC50,ERBB4,> 50 µM
same,IC50,FES,> 50 µM
same,IC50,FGFR3,> 50 µM
same,IC50,FRK,> 50 µM
same,IC50,HCK,> 50 µM
same,IC50,IGF1R,> 50 µM
same,IC50,INSR,> 50 µM
same,IC50,INSRR,> 50 µM
same,IC50,ITK,> 50 µM
same,IC50,JAK1,> 50 µM
same,IC50,JAK2,> 50 µM
same,IC50,KDR,> 50 µM
same,IC50,LTK,> 50 µM
same,IC50,LYN,> 50 µM
same,IC50,MERTK,> 50 µM
same,IC50,MET,> 50 µM
same,IC50,MST1R,> 50 µM
same,IC50,NTRK1,> 50 µM
same,IC50,PDGFRA,> 50 µM
same,IC50,PDGFRB,> 50 µM
same,IC50,PIM1,> 50 µM
same,IC50,PLK1,> 50 µM
same,IC50,RAF1,> 50 µM
same,IC50,ROS1,> 50 µM
same,IC50,TYRO3,> 50 µM
